# Results: PMC5699498 (Protein Science : A Publication of the Protein Society, 2017)
# Biological target: Lpg2936 (Legionella pneumophila, UniProt Q5ZRE6)
# Assay: biochemical
# Lpg2936, sequence (Q5ZRE6 1-244 limits assumed): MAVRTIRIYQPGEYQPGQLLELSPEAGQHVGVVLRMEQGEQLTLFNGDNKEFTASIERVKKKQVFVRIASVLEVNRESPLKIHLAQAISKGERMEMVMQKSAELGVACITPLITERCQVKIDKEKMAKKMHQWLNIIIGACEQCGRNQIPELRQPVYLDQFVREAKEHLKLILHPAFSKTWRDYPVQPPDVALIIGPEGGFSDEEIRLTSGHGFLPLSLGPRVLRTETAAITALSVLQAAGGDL
smiles,measurement,value
C[S+](CC[C@H](N)C(=O)O)C[C@H]1O[C@@H](n2cnc3c(N)ncnc32)[C@H](O)[C@@H]1O (stereo partly shown) [S‐adenosyl‐L‐methionine],Kd,12 nM
